From patent publication US8952157B2, “Apoptosis-inducing agents for the treatment of cancer and immune and autoimmune diseases” (AbbVie Inc., priority 2008, dated 2015)

What follows are compounds tested against GST-Bcl-2 (Homo sapiens (Human), UniProt P10415) (assay: Time Resolved-Fluorescence Resonance Energy Transfer (TR-FRET) Bcl-2 binding assay). Details: not given.
Chain of GST-Bcl-2 (P10415 whole entry): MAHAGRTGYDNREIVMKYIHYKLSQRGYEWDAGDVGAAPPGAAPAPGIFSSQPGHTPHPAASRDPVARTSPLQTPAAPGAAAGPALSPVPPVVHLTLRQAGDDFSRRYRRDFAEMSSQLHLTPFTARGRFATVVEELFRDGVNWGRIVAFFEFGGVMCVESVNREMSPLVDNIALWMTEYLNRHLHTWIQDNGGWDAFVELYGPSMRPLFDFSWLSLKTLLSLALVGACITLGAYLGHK
How it was run: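 Competition TR-FRET: GST-Bcl-2 with fluorescent Bak peptide probe and Tb-anti-GST antibody, compounds serially diluted from 50 μM (2× start, 10% DMSO).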
With `CC1(C)CCC(CN2CCN(c3ccc(C(=O)NS(=O)(=O)c4ccc(N[C@H]5CC[C@H](N6CCOCC6)CC5)c([N+](=O)[O-])c4)c(Oc4cccc(Cl)c4)c3)CC2)=C(c2ccc(Cl)cc2)C1` [Example 205, Trans-2-(3-chlorophenoxy)-4-(4-{[2-(4-chlorophenyl)-4,4-dimethylcyclohex-1-en-1-yl]methyl}piperazin-1-yl)-N-({4-[(4-morpholin-4-ylcyclohexyl)amino]-3-nitrophenyl}sulfonyl)benzamide] the Ki was 0.153 nM. For `CN1CCC(Nc2ccc(S(=O)(=O)NC(=O)c3ccc(N4CCN(CC5=C(c6ccc(Cl)cc6)CC(C)(C)CC5)CC4)cc3Oc3cc4cc[nH]c4cc3C(F)(F)F)cc2[N+](=O)[O-])CC1` [Example 217, 4-(4-{[2-(4-chlorophenyl)-4,4-dimethylcyclohex-1-en-1-yl]methyl)piperazin-1-yl)-N-((4-[(1-methylpiperidin-4-yl)amino]-3-nitrophenyl}sulfonyl)-2-{[6-(trifluoromethyl)-1H-indol-5-yl]oxy}benzamide], the Ki was 0.174 nM.

Same assay, conditions: GST-Bcl-2 1 nM, F-Bak peptide probe 100 nM, Tb-anti-GST antibody 1 nM; Ki by Wang's equation
In the case of `CC1(C)CCC(CN2CCN(c3ccc(C(=O)NS(=O)(=O)c4ccc(NC5CCN(C6CCOCC6)CC5)c([N+](=O)[O-])c4)c(Oc4cc5cc[nH]c5c(F)c4F)c3)CC2)=C(c2ccc(Cl)cc2)C1` [Example 201, 4-(4-{[2-(4-chlorophenyl)-4,4-dimethylcyclohex-1-en-1-yl]methyl}piperazin-1-yl)-2-[(6,7-difluoro-1H-indol-5-yl)oxy]-N-({3-nitro-4-[(1-tetrahydro-2H-pyran-4-ylpiperidin-4-yl)amino]phenyl}sulfonyl)benzamide], the Ki is reported as 0.01 nM. Compound `CN1CCC(Nc2ccc(S(=O)(=O)NC(=O)c3ccc(N4CCN(CC5=C(c6ccc(Cl)cc6)CC(C)(C)CC5)CC4)cc3Oc3cccc4c3ccn4C(=O)OC(C)(C)C)cc2[N+](=O)[O-])CC1` [Example 202, tert-butyl 4-(5-(4-{[2-(4-chlorophenyl)-4,4-dimethylcyclohex-1-en-1-yl]methyl}piperazin-1-yl)-2-{[({4-[(1-methylpiperidin-4-yl)amino]-3-nitrophenyl}sulfonyl)amino]carbonyl}phenoxy)-1H-indole-1-carboxylate] has a Ki of 20 nM. With `CN(C)C1CCC(Nc2ccc(S(=O)(=O)NC(=O)c3ccc(N4CCN(CC5=C(c6ccc(Cl)cc6)CC(C)(C)CC5)CC4)cc3Oc3cccc(Cl)c3)cc2[N+](=O)[O-])CC1` (stereo not shown) [Example 203, 2-(3-chlorophenoxy)-4-(4-{[2-(4-chlorophenyl)-4,4-dimethylcyclohex-1-en-1-yl]methyl}piperazin-1-yl)-N-[(4-{[4-(dimethylamino)cyclohexyl]amino}-3-nitrophenyl)sulfonyl]benzamide] the Ki was 0.084 nM. `CCN(CC)C1CCC(Nc2ccc(S(=O)(=O)NC(=O)c3ccc(N4CCN(CC5=C(c6ccc(Cl)cc6)CC(C)(C)CC5)CC4)cc3Oc3cccc(Cl)c3)cc2[N+](=O)[O-])CC1` (stereo not shown) [Example 204, 2-(3-chlorophenoxy)-4-(4-{[2-(4-chlorophenyl)-4,4-dimethylcyclohex-1-en-1-yl]methyl}piperazin-1-yl)-N-[(4-{[4-(diethylamino)cyclohexyl]amino}-3-nitrophenyl)sulfonyl]benzamide] showed a Ki of 0.075 nM. With `CC(c1ccccc1-c1ccc(Cl)cc1)N1CCN(c2ccc(C(=O)NS(=O)(=O)c3ccc(NC4CCN(C)CC4)c([N+](=O)[O-])c3)c(Oc3ccccc3Cl)c2)CC1` (stereo not shown) [Example 206, 4-{4-[1-(4′-chloro-1,1′-biphenyl-2-yl)ethyl]piperazin-1-yl}-2-(2-chlorophenoxy)-N-({4-[(1-methylpiperidin-4-yl)amino]-3-nitrophenyl}sulfonyl)benzamide] the Ki was 0.037 nM. With `CN1CCC(Nc2ccc(S(=O)(=O)NC(=O)c3ccc(N4CCN(CC5=C(c6ccc(Cl)cc6)CC(C)(C)CC5)CC4)cc3Oc3ccc(O)cc3Cl)cc2[N+](=O)[O-])CC1` [Example 207, 2-(2-chloro-4-hydroxyphenoxy)-4-(4-{[2-(4-chlorophenyl)-4,4-dimethylcyclohex-1-en-1-yl]methyl}piperazin-1-yl)-N-({4-[(1-methylpiperidin-4-yl)amino]-3-nitrophenyl}sulfonyl)benzamide] the Ki was 0.074 nM. Work on `CN1CCN(Nc2ccc(S(=O)(=O)NC(=O)c3ccc(N4CCN(CC5=C(c6ccc(Cl)cc6)CC(C)(C)CC5)CC4)cc3Oc3ccc(O)cc3Cl)cc2[N+](=O)[O-])CC1` [Example 208, 2-(2-chloro-4-hydroxyphenoxy)-4-(4-{[2-(4-chlorophenyl)-4,4-dimethylcyclohex-1-en-1-yl]methyl}piperazin-1-yl)-N-({4-[(4-methylpiperazin-1-yl)amino]-3-nitrophenyl}sulfonyl)benzamide] yielded a Ki of 0.261 nM. `CN1CCC(Nc2ccc(S(=O)(=O)NC(=O)c3ccc(N4CCN(CC5=C(c6ccc(Cl)cc6)CC(C)(C)CC5)CC4)cc3Oc3cc(F)cc4[nH]ccc34)cc2[N+](=O)[O-])CC1` [Example 209, 4-(4-{[2-(4-chlorophenyl)-4,4-dimethylcyclohex-1-en-1-yl]methyl}piperazin-1-yl)-2-[(6-fluoro-1H-indol-4-yl)oxy]-N-({4-[(1-methylpiperidin-4-yl)amino]-3-nitrophenyl}sulfonyl)benzamide] showed a Ki of less than 0.01 nM. `CC1(C)CCC(CN2CCN(c3ccc(C(=O)NS(=O)(=O)c4ccc(NC5CCN(C6CCOCC6)CC5)c([N+](=O)[O-])c4)c(Oc4cc(F)cc5[nH]ccc45)c3)CC2)=C(c2ccc(Cl)cc2)C1` [Example 210, 4-(4-{[2-(4-chlorophenyl)-4,4-dimethylcyclohex-1-en-1-yl]methyl}piperazin-1-yl)-2-[(6-fluoro-1H-indol-4-yl)oxy]-N-({3-nitro-4-[(1-tetrahydro-2H-pyran-4-ylpiperidin-4-yl)amino]phenyl}sulfonyl)benzamide] was tested, and the Ki was 0.02 nM. `CN1CCN(Nc2ccc(S(=O)(=O)NC(=O)c3ccc(N4CCN(CC5=C(c6ccc(Cl)cc6)CC(C)(C)CC5)CC4)cc3Oc3ccc(O)cc3Cl)cc2S(=O)(=O)C(F)(F)F)CC1` [Example 211, 2-(2-chloro-4-hydroxyphenoxy)-4-(4-{[2-(4-chlorophenyl)-4,4-dimethylcyclohex-1-en-1-yl]methyl}piperazin-1-yl)-N-({4-[(4-methylpiperazin-1-yl)amino]-3-[(trifluoromethyl)sulfonyl]phenyl}sulfonyl)benzamide] gave a Ki of 1.34 nM. Compound `CN(C)CCCNc1ccc(S(=O)(=O)NC(=O)c2ccc(N3CCN(CC4=C(c5ccc(Cl)cc5)CC(C)(C)CC4)CC3)cc2Oc2cccc3c2c(CN2CCN(C)CC2)cn3CN2CCN(C)CC2)cc1[N+](=O)[O-]` [Example 212, 2-({1,3-bis[(4-methylpiperazin-1-yl)methyl]-1H-indol-4-yl}oxy)-4-(4-{[2-(4-chlorophenyl)-4,4-dimethylcyclohex-1-en-1-yl]methyl}piperazin-1-yl)-N-[(4-{[3-(dimethylamino)propyl]amino}-3-nitrophenyl)sulfonyl]benzamide] has a Ki of 0.375 nM. For `CN(C)CCCNc1ccc(S(=O)(=O)NC(=O)c2ccc(N3CCN(CC4=C(c5ccc(Cl)cc5)CC(C)(C)CC4)CC3)cc2Oc2cccc3[nH]cc(CN4CCN(C)CC4)c23)cc1[N+](=O)[O-]` [Example 213, 4-(4-{[2-(4-chlorophenyl)-4,4-dimethylcyclohex-1-en-1-yl]methyl}piperazin-1-yl)-N-[(4-{[3-(dimethylamino)propyl]amino}-3-nitrophenyl)sulfonyl]-2-({3-[(4-methylpiperazin-1-yl)methyl]-1H-indol-4-yl}oxy)benzamide], the Ki was 0.031 nM. Compound `CN1CCC(Nc2ccc(S(=O)(=O)NC(=O)c3ccc(N4CCN(CC5=C(c6ccc(Cl)cc6)CC(C)(C)CC5)CC4)cc3Oc3ccccc3C(=O)N(C)C)cc2[N+](=O)[O-])CC1` [Example 214, 2-(5-(4-((2-(4-chlorophenyl)-4,4-dimethylcyclohex-1-enyl)methyl)piperazin-1-yl)-2-(4-(1-methylpiperidin-4-ylamino)-3-nitrophenylsulfonylcarbamoyl)phenoxy)-N,N-dimethylbenzamide] has a Ki of 0.221 nM. Compound `CC1(C)CCC(CN2CCN(c3ccc(C(=O)NS(=O)(=O)c4ccc(NC5CCN(C6CCOCC6)CC5)c([N+](=O)[O-])c4)c(Oc4cccc5[nH]c(C(F)(F)F)cc45)c3)CC2)=C(c2ccc(Cl)cc2)C1` [Example 215, 4-(4-{[2-(4-chlorophenyl)-4,4-dimethylcyclohex-1-en-1-yl]methyl}piperazin-1-yl)-N-({3-nitro-4-[(1-tetrahydro-2H-pyran-4-ylpiperidin-4-yl)amino]phenyl}sulfonyl)-2-{[2-(trifluoromethyl)-1H-indol-4-yl]oxy}benzamide] has a Ki of 2.95 nM. For `CC1(C)CCC(CN2CCN(c3ccc(C(=O)NS(=O)(=O)c4ccc(NC5CCN(C6CCOCC6)CC5)c([N+](=O)[O-])c4)c(Oc4ccc(O)cc4Cl)c3)CC2)=C(c2ccc(Cl)cc2)C1` [Example 216, 2-(2-chloro-4-hydroxyphenoxy)-4-(4-{[2-(4-chlorophenyl)-4,4-dimethylcyclohex-1-en-1-yl]methyl}piperazin-1-yl)-N-({3-nitro-4-[(1-tetrahydro-2H-pyran-4-ylpiperidin-4-yl)amino]phenyl}sulfonyl)benzamide], the Ki was 0.027 nM. In the case of `CC1(C)CCC(CN2CCN(c3ccc(C(=O)NS(=O)(=O)c4ccc(NC5CCN(C6CCOCC6)CC5)c([N+](=O)[O-])c4)c(Oc4cc5cc[nH]c5cc4C(F)(F)F)c3)CC2)=C(c2ccc(Cl)cc2)C1` [Example 218, 4-(4-{[2-(4-chlorophenyl)-4,4-dimethylcyclohex-1-en-1-yl]methyl}piperazin-1-yl)-N-({3-nitro-4-[(1-tetrahydro-2H-pyran-4-ylpiperidin-4-yl)amino]phenyl}sulfonyl)-2-{[6-(trifluoromethyl)-1H-indol-5-yl]oxy}benzamide], the Ki is reported as 0.175 nM. `CN1CCN(Nc2ccc(S(=O)(=O)NC(=O)c3ccc(N4CCN(CC5=C(c6ccc(Cl)cc6)CC(C)(C)CC5)CC4)cc3Oc3cc4cc[nH]c4c(F)c3F)cc2[N+](=O)[O-])CC1` [Example 220, 4-(4-{[2-(4-chlorophenyl)-4,4-dimethylcyclohex-1-en-1-yl]methyl}piperazin-1-yl)-2-[(6,7-difluoro-1H-indol-5-yl)oxy]-N-({4-[(4-methylpiperazin-1-yl)amino]-3-nitrophenyl}sulfonyl)benzamide] showed a Ki of 0.127 nM.
